In PMC10343781, “Effect of Linker Elongation on the VGSC Affinity and Anticonvulsant Activity among 4-Alkyl-5-aryl-1,2,4-triazole-3-thione Derivatives” (Molecules, 2023):
Like-named read-outs stand apart in the source and are kept apart here.

Key:
[1] = biological target: Na+ channel (site 2), batrachotoxin-binding sites of VGSCs; conditions: cited from earlier work
[2] = biological target: Na+ channel (site 2), batrachotoxin-binding sites of VGSCs; conditions: [3H]batrachotoxin displacement, rat cerebral cortex membranes, 8 concentrations 0.1-300 µM; read-out: Na+ Channel (Site 2) Affinity IC50 ± SEM
[3] = tested on: maximal electroshock-induced tonic-clonic seizures in mice; assay: Maximal electroshock-induced seizure (MES) test; type: in vivo; conditions: Mus musculus, ip, read-out: ED50 ± SEM, anticonvulsant activity (MES test)
Protocol: As the sodium channel ligands are recognized as antiepileptic agents and the affinity of 3 and 4 against VGSCs was still in the beneficial range, the investigated 1,2,4-triazole derivatives were examined for their antiepileptic potential using in the vivo model of tonic–clonic seizures in mice. The protective effect of compounds 3 and 4 against maximal electroshock-induced seizures (MES) was evaluated in a wide range of doses (producing 0% to 100% protection) that enabled us to calculate corresponding ED50 values.
Anticonvulsant activity of the investigated compounds was determined according to the same procedure as described in [11, 15, 18]. Adult albino mice weighing 20–25 g were used in the experiment. The animals were randomly divided into groups of 8 mice and kept in colony cages with free access to water and food. Test compounds were administered intraperitoneally, suspended in a 1% solution of Tween 80 in distilled water in a volume of 5 mL/kg. Electroconvulsions were produced with alternating current (0.2 s stimulus duration; 500 V, 50 Hz, 25 mA constant current) delivered through ear clip electrodes by a type 221 rodent shock generator (Hugo Sachs Elektronik, Freiburg, Germany). Absence of tonic extension of the hind limb was assumed as the criterion of anticonvulsant activity. ED50 values were calculated using Litchfield and Wilcoxon’s log-probit method.

[4] = tested on: motor coordination of mice; assay: Rotarod test (acute neurotoxicity); conditions: i.p.
Protocol: Additionally, their possible acute neurotoxic effects were evaluated in the rotarod test.
Acute neurotoxicity of the compounds obtained after i.p. administration was tested in mice using the rotarod test according to the methodology described earlier [37].

[5] = tested on: maximal electroshock-induced tonic-clonic seizures in mice; design: method as in PMID 30594731; conditions: cited from earlier work

| Structure (SMILES) | IC50 [2] [µM] | ED50 ([3]; pretreatment time 15 min) [mg/kg] | ED50 ([3]; pretreatment time 30 min) [mg/kg] | ED50 ([3]; pretreatment time 60 min) [mg/kg] | ED50 ([3]; pretreatment time 120 min) [mg/kg] | melting point [°C] | PI (TD50/ED50) ([4]; pretreatment time 15 min) | PI (TD50/ED50) ([4]; pretreatment time 30 min) | PI (TD50/ED50) ([4]; pretreatment time 60 min) | PI (TD50/ED50) ([4]; pretreatment time 120 min) | other results |
| --- | --- | --- | --- | --- | --- | --- | --- | --- | --- | --- | --- |
| CCCCn1c(Cc2cccc(Cl)c2)n[nH]c1=S [Compound 1] |  |  |  |  |  |  |  |  |  |  | IC50 ([1]; Figure 1, methylene-linker 3-chlorophenyl analogs, read-out: IC50 (VGSC affinity)): 15.8 µM |
| CCCCCCn1c(Cc2cccc(Cl)c2)n[nH]c1=S [Compound 2, 5-(3-chlorobenzyl)-4-hexyl-1,2,4-triazole-3-thione] |  |  |  |  |  |  |  |  |  |  | IC50 ([1]; read-out: IC50 (blocked the VGSCs)): 6.17 µM |
| CCCCn1c(CCc2cccc(Cl)c2)n[nH]c1=S [Compound 3, 4-Butyl-5-[2-(3-chlorophenyl)ethyl]-2,4-dihydro-3H-1,2,4-triazole-3-thione] | 11.9 ± 0.4 | 139 ± 31.4 | 96.6 ± 14.8 | 148 ± 17.1 | 195 ± 18.9 | 102 to 104 | 2.4 | 3.4 | 2.3 | 1.7 |  |
| CCCCCCn1c(CCc2cccc(Cl)c2)n[nH]c1=S [Compound 4, 5-[2-(3-Chlorophenyl)ethyl]-4-hexyl-2,4-dihydro-3H-1,2,4-triazole-3-thione] | 18.9 ± 0.3 | 115 ± 7.6 | 129 ± 21.1 | 215 ± 21.1 | 255 ± 22.5 | 84 to 86 | 6.2 | 5.3 | 3.2 | 1.9 | median toxic doses (TD50) in the rotarod test ([4]; pretreatment time not stated, highest value of the series): ≤ 710.5 mg/kg |
| CCCC(CCC)C(=O)O [Valproate] |  |  |  |  |  |  |  |  |  |  | ED50 ± SEM, anticonvulsant activity (MES test) ([5]; pretreatment time 15 min): 189.0 ± 17.3 mg/kg; ED50 ± SEM, anticonvulsant activity (MES test) ([5]; pretreatment time 30 min): 216.9 ± 9.4 mg/kg; ED50 ± SEM, anticonvulsant activity (MES test) ([5]; pretreatment time 60 min): 218.4 ± 18.9 mg/kg; ED50 ± SEM, anticonvulsant activity (MES test) ([5]; pretreatment time 120 min): 246.6 ± 21.4 mg/kg |
| COc1ccc(C(=O)O[C@H]2CC[C@@]3(C)[C@@H]4CC[C@H]5[C@]6(O)C[C@H](O)[C@@]7(O)[C@@H](CN8C[C@@H](C)CC[C@H]8[C@@]7(C)O)[C@]6(O)C[C@@]53O[C@]24O)cc1OC [Veratridine, reference compound] | 17.8 ± 0.9 |  |  |  |  |  |  |  |  |  |  |
